These results are taken from ChEMBL document CHEMBL1141054, “Analogs of a potent maxi-K potassium channel opener with an improved inhibitory profile toward cytochrome P450 isozymes” (Bioorg Med Chem Lett, 2005).

The nature of assay [1]: Percent increase of potassium current mediated by large conductance calcium-activated channel expressed in Xenopus laevis oocytes at 20 uM. Type of assay: functional, Homo sapiens, Oocyte.
Assay [2] concerns the target T1, Cytochrome P450 2C9 (Homo sapiens, UniProt P11712). As to the kind of experiment: Inhibitory activity against Cytochrome P450 2C9. Type of assay: ADME.
The target in assay [3] is T1, Cytochrome P450 2C9. As to the kind of experiment: Inhibition against Cytochrome P450 2C9 prepared from baculovirus-infected insect cells using 7-methoxy-4-trifluoromethylcoumarin. Type of assay: ADME.
The target in a further assay is T2, Cytochrome P450 1A2 (Homo sapiens, UniProt P05177).
T2 sequence (P05177 whole entry): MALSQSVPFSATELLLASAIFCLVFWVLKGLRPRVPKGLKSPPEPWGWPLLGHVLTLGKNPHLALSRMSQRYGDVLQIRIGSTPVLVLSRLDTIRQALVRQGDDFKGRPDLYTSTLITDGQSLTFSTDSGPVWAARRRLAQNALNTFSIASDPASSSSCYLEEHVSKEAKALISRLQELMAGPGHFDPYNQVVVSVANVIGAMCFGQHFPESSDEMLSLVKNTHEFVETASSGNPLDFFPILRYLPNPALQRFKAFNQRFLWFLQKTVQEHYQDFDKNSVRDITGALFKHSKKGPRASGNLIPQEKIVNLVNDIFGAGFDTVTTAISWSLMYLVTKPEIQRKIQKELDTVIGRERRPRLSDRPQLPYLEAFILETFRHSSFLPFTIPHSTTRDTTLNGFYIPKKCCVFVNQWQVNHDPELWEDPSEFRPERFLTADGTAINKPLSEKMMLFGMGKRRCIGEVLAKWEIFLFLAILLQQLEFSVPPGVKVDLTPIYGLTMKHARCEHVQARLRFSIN
As to the kind of experiment: Inhibition against Cytochrome P450 1A2 prepared from baculovirus-infected insect cells using 3-cyano-7-ethoxycoumarin. Type of assay: ADME.

The target of assay [4] is T3, Cytochrome P450 3A4 (Homo sapiens, UniProt P08684). As to the kind of experiment: Inhibition against Cytochrome P450 3A4 prepared from baculovirus-infected insect cells using resorufin benzyl ether. Type of assay: ADME.
Assay [5] concerns the target T4, Cytochrome P450 2D6 (Homo sapiens, UniProt P10635). As to the kind of experiment: Inhibition against Cytochrome P450 2D6 prepared from baculovirus-infected insect cells using 3-[2-(N,N-diethyl-N-methylamino)ethyl]-7- methoxy-4-methylcoumarin. Type of assay: ADME.
The target in the next assay is Cytochrome P450 2C19 (Homo sapiens, UniProt P33261). As to the kind of experiment: Inhibition against Cytochrome P450 2C19 prepared from baculovirus-infected insect cells using 3-cyano-7-ethoxycoumarin. Type of assay: ADME.
Assay [6] deals with T3, Cytochrome P450 3A4. As to the kind of experiment: Inhibition against Cytochrome P450 3A4 prepared from baculovirus-infected insect cells using 7-benzyloxy- 4-trifluoromethylcoumarin. Type of assay: ADME.
Assay [7] addresses T1, Cytochrome P450 2C9. As to the kind of experiment: Inhibition against Cytochrome P450 2C9. Type of assay: ADME.
In assay [8] the target is T3, Cytochrome P450 3A4. As to the kind of experiment: Inhibition against Cytochrome P450 3A4 prepared from baculovirus-infected insect cells using 7-benzyloxy-4-trifluoromethylcoumarin. Type of assay: ADME.
The target in assay [9] is T4, Cytochrome P450 2D6. As to the kind of experiment: Inhibition against Cytochrome P450 2D6 prepared from baculovirus-infected insect cells using 3-[2-(N,N-diethyl-N-methylamino)ethyl]-7-methoxy-4-methylcoumarin. Type of assay: ADME.
In assay [10] the target is T3, Cytochrome P450 3A4. As to the kind of experiment: Inhibition against Cytochrome P450 3A4 prepared from baculovirus-infected insect cells using resorufin benzylether. Type of assay: ADME.

T1 sequence (P11712 whole entry): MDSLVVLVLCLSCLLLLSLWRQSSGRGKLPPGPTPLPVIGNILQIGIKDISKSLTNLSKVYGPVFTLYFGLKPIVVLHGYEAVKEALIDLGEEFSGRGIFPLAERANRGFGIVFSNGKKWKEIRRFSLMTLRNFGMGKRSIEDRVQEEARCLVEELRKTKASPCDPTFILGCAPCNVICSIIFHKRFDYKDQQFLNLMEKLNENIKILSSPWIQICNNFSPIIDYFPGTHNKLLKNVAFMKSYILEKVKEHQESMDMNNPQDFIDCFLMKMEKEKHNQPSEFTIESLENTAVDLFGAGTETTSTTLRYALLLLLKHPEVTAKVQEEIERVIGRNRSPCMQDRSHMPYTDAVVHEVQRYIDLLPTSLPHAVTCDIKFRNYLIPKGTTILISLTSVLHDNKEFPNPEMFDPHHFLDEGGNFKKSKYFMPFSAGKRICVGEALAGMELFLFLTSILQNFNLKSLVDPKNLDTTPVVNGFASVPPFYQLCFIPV
T4 sequence (P10635 whole entry): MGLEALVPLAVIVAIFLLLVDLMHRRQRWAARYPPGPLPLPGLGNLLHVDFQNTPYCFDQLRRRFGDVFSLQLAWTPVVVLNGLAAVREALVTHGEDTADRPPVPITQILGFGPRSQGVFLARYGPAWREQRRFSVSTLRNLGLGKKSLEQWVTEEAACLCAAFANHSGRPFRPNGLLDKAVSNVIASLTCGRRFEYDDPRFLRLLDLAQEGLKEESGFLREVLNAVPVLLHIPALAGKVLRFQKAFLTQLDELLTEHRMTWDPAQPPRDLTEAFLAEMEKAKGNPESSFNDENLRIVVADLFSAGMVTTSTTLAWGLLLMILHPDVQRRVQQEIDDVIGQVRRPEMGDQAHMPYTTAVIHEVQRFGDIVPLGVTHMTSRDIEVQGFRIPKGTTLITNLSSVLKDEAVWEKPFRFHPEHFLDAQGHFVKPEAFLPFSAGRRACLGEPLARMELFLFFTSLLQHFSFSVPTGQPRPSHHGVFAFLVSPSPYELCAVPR
T3 sequence (P08684 whole entry): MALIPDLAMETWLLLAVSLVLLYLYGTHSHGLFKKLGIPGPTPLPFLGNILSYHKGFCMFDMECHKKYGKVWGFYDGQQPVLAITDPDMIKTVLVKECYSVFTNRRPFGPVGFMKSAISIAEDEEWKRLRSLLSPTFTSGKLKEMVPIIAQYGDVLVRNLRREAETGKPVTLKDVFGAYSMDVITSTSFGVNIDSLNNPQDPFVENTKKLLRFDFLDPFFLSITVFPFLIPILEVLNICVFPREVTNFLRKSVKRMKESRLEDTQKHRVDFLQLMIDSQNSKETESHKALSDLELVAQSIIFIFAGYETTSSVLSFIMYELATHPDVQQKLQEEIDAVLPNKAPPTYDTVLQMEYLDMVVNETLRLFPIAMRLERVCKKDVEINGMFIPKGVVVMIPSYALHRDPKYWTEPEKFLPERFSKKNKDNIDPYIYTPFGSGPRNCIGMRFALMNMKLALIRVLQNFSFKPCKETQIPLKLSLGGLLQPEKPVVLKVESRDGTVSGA
Cytochrome P450 2C19, sequence (P33261 whole entry): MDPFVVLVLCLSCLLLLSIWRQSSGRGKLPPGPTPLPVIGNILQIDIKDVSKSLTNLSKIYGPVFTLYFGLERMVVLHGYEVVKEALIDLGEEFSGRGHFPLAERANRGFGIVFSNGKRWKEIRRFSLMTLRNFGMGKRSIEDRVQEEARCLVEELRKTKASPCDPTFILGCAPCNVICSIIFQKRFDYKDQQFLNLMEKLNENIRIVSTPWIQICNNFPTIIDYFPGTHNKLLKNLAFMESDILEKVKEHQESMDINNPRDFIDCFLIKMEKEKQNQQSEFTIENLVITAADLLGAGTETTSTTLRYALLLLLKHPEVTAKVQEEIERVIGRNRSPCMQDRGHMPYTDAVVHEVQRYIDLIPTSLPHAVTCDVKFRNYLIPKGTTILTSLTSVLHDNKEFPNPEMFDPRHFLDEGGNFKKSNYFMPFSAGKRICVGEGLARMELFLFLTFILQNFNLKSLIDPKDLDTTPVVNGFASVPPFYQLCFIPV

As to `NC(=O)COc1ccc(Cl)cc1-c1c(CCO)c(O)nc2ccc(C(F)(F)F)cc12`, in assay [1], the Increase is given as 124%.
As for `O=C1Cc2c(c3cc(C(F)(F)F)ccc3[nH]c2=O)-c2cc(Cl)ccc2O1`, the IC50 on Cytochrome P450 2C9 [2] worked out at 12.4 µM.
For the molecule `N#CCn1c(=O)c(CCO)c(-c2cc(Cl)ccc2O)c2cc(C(F)(F)F)ccc21`, the IC50 against Cytochrome P450 2C9 [3] is 3.9 µM; at Cytochrome P450 1A2, above 40 µM; against Cytochrome P450 3A4 [4], 18 µM; on Cytochrome P450 2D6 [5], 23 µM; at Cytochrome P450 2C19 it was 24 µM; at Cytochrome P450 3A4 [6] it was 13 µM. Besides, the Increase in assay [1] amounted to 236.6%.
In the case of `O=c1[nH]c2ccc(C(F)(F)F)cc2c(-c2cc(Cl)ccc2O)c1CCO` [BMS-223131], the IC50 on Cytochrome P450 2C9 [3] was 1.7 µM; against Cytochrome P450 2C9 [7], 1.7 µM; against Cytochrome P450 3A4 [8] it was 8.1 µM; on Cytochrome P450 1A2 it was 30 µM; on Cytochrome P450 2D6 [9], 35 µM; at Cytochrome P450 3A4 [10] it was above 100 µM. Also, the IC50 on Cytochrome P450 2C19 stood at 5.2 µM. Also, the Increase in assay [1] is 252.6%.
At Cytochrome P450 2C9 [2], `CC(=O)CC1Oc2ccc(Cl)cc2-c2c1c(=O)[nH]c1ccc(C(F)(F)F)cc21` (stereo not drawn) displayed an IC50 of 19.5 µM.
Take `Cn1c(=O)c(CCO)c(-c2cc(Cl)ccc2O)c2cc(C(F)(F)F)ccc21`: the IC50 on Cytochrome P450 2C9 [2] stood at 1.1 µM. For the same molecule, the Increase in [1] is listed as 296.1%.
On Cytochrome P450 2C9 [2], `COc1ccc(Cl)cc1-c1c(CCO)c(O)nc2ccc(C(F)(F)F)cc12` yielded an IC50 of 5.47 µM. Also, the Increase in assay [1] is 211.2%.
As for `N=C(N)COc1ccc(Cl)cc1-c1c(CCO)c(O)nc2ccc(C(F)(F)F)cc12`, the Increase in assay [1] amounted to 118.3%.
On the same count and under the same terms, for `OCCc1c(O)nc2ccc(C(F)(F)F)cc2c1-c1cc(Cl)ccc1OCc1nn[nH]n1` the value was 111%.
For `O=c1c(CCO)c(-c2cc(Cl)ccc2O)c2cc(C(F)(F)F)ccc2n1Cc1nn[nH]n1`, the IC50 at Cytochrome P450 2C9 [3] is 19 µM; against Cytochrome P450 1A2 it was above 100 µM; at Cytochrome P450 3A4 [4], 13 µM; against Cytochrome P450 2D6 [5], above 100 µM; against Cytochrome P450 2C19, 12 µM; at Cytochrome P450 3A4 [6] it was 30 µM. Besides, the Increase in assay [1] is given as 205.8%.
For the molecule `NC(=O)Cn1c(=O)c(CCO)c(-c2cc(Cl)ccc2O)c2cc(C(F)(F)F)ccc21`, the IC50 was 16 µM against Cytochrome P450 2C9 [3]; above 100 µM on Cytochrome P450 1A2; 50 µM against Cytochrome P450 3A4 [4]; above 100 µM against Cytochrome P450 2D6 [5]; 8.2 µM against Cytochrome P450 2C19; 26 µM against Cytochrome P450 3A4 [6]. For the same molecule, in assay [1], the Increase is recorded as 262.5%.
At Cytochrome P450 2C9 [2], `CCN(CC)C[C@@H](O)CSc1c(-c2cc(Cl)ccc2O)c2cc(C(F)(F)F)ccc2[nH]c1=O` had an IC50 of 50.7 µM. In other words, the double-digit micromolar range.
With `N=C(N)Cn1c(=O)c(CCO)c(-c2cc(Cl)ccc2O)c2cc(C(F)(F)F)ccc21`, the Increase in assay [1] is listed as 105.8%.
With `CCN(CC)C[C@H](O)CSc1c(-c2cc(Cl)ccc2O)c2cc(C(F)(F)F)ccc2[nH]c1=O`, the IC50 against Cytochrome P450 2C9 [2] was determined as 37.7 µM.
Take `N#CCOc1ccc(Cl)cc1-c1c(CCO)c(O)nc2ccc(C(F)(F)F)cc12`: the Increase in assay [1] is listed as 148.9%.
On Cytochrome P450 2C9 [2], `O=c1[nH]c2ccccc2c(Cc2ccccc2)c1-[n+]1ccccc1` displayed an IC50 above 100 µM.
